# Test results from patent US10662156B2, “Guanidine derivative and medical use thereof” (Toray Industries, Inc., priority 2016, dated 2020).
# Where a name gives a salt, the structure may show the parent alone.
# Target: recombinant GST fusion MALT1 (human MALT1) (Homo sapiens (Human), UniProt Q9UDY8)
# Assay: Evaluation of inhibition of protease activity of MALT1 (cleavage of fluorescent peptide substrate Ac-LRSR-AMC)
# Assay type: biochemical
# Conditions: substrate Ac-LRSR-AMC 20 μmol/L, 30° C. for 80 minutes
# Description: The guanidine derivative (I) or the pharmacologically acceptable salt thereof was evaluated for its inhibition of the protease activity of MALT1 in an in vitro experimental system in accordance with the method described in the literature (Cancer Cell, 2012, Vol. 22, p. 825-837). Specifically, the evaluation was conducted by measuring the degree of reduction in fluorescence value by the compound relative to elevation in fluorescence value resulting from the cleavage of a fluorescently labeled artificial peptide substrate by recombinant MALT1.
# A) Preparation of Recombinant GST Fusion MALT1:
# Full-length cDNA of human MALT1 gene (GenBank accession No: AB026118.1) amplified by PCR was inserted in flame to a SalI site located downstream of GST gene in a pGEX6P3 vector (GE Healthcare Japan Corp.) to prepare a vector (hereinafter, referred to as a pGEX6P3-MALT1 vector). Subsequently, E. coli for protein expression (BL21-RIL-codon plus-DE3, Agilent Technologies, Inc.) was transformed with the pGEX6P3-MALT1 vector and then analyzed by ampicillin resistance screening and colony PCR to obtain an E. coli strain expressing recombinant GST fusion MALT1. Protein expression was induced with isopropyl-(3-thiogalactopyranoside. After the expression induction, E. coli precipitates were recovered by centrifugation from the E. coli culture solution, and the E. coli precipitates were homogenized and then centrifuged to obtain a supernatant. The supernatant was purified using GSTrap FF column (GE Healthcare Japan Corp.) to obtain recombinant GST fusion MALT1.
# B) Evaluation of Inhibition of Protease Activity of MALT1:
# To 89 μL of an enzyme solution ([…] GST fusion MALT1, 50 mmol/L MES, 150 mmol/L NaCl, 10% sucrose, 0.1% CHAPS, 10 mmol/L dithiothreitol, and 1 mol/L tri-ammonium citrate) per specimen, 1 μL of a test compound (DMSO-diluted solution) of each concentration was added to prepare a mixed solution. The mixed solution was incubated at room temperature for 30 minutes, followed by the measurement of the fluorescence value of the mixed solution (fluorescence value of the first measurement) (Ex: 380 nm, Em: 460 nm; Envision (Perkin Elmer Inc.)). Next, 10 μL of 200 μmol/L substrate (Ac-LRSR-AMC, SM Biochemicals LLC) was added (final concentration: 20 μmol/L) to the mixed solution, and the mixture was reacted by incubation at 30° C. for 80 minutes, followed by the measurement of the fluorescence value of the reaction solution (fluorescence value of the second measurement) (Ex: 380 nm, Em: 460 nm; Envision (Perkin Elmer Inc.)). A “well nonsupplemented with the test compound (only DMSO was added), nonsupplemented with the enzyme and supplemented with the substrate”, and a “well nonsupplemented with the test compound (only DMSO was added), supplemented with the enzyme and supplemented with the substrate” were established.
# The fluorescence value of the first measurement was defined as “F1”, and the fluorescence value of the second measurement was defined as “F2”. F2−F1 of the “well nonsupplemented with the test compound (only DMSO was added), nonsupplemented with the enzyme and supplemented with the substrate” was defined as “Fback”, F2−F1 of the “well nonsupplemented with the test compound (only DMSO was added), supplemented with the enzyme and supplemented with the substrate” was defined as “Fpositive”, and F2−F1 of the “well supplemented with the test compound, supplemented with the enzyme and supplemented with the substrate” was defined as “Fsample”. The rate of inhibition (%) of the protease activity of MALT1 by the test compound was calculated according to the following expression. Rate of inhibition (%)=100×(1−(Fsample−Fback)/(Fpositive−Fback))
# Sequence of recombinant GST fusion MALT1 (human MALT1) (Q9UDY8 whole entry, the tested form may be a part): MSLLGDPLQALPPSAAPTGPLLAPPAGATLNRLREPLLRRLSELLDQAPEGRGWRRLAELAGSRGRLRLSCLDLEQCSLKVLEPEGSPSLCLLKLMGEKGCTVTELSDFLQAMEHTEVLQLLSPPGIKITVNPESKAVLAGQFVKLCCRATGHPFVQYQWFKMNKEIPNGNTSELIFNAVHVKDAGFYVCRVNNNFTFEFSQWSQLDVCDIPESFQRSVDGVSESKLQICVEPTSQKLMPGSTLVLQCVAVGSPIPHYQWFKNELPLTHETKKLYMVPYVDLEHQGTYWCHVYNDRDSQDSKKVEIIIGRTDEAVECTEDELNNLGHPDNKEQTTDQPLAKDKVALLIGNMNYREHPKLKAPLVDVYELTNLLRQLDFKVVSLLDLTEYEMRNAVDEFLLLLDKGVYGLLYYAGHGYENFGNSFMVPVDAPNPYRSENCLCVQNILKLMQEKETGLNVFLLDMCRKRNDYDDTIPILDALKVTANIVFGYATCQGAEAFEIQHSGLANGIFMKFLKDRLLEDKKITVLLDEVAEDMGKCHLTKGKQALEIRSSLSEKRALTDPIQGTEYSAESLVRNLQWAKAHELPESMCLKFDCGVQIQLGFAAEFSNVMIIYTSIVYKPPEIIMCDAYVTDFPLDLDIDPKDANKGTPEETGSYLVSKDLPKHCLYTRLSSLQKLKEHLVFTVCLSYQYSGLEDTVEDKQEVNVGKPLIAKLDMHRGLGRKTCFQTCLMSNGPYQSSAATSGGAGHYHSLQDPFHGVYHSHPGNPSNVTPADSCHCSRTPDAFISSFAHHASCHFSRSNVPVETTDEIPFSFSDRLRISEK
row,IC50 [nM],Compound
1,112,"N/C(=N\S(=O)(=O)c1ccccc1)NCc1cc(-c2ccc(Cl)cc2)c(-c2ccc(Cl)cc2)nc1O [Compound of Example 91, N-(amino(((5,6-bis(4-chlorophenyl)-2-hydroxypyridin-3-yl)methyl)amino)methylene)benzenesulfonamide]"
2,300,"N/C(=N\C(=O)C1CCCCC1)NCc1cnc(-c2ccc(Cl)cc2)c(-c2ccc(Cl)cc2)c1 [Compound of Example 73, N-(amino(((5,6-bis(4-chlorophenyl)pyridin-3-yl)methyl)amino)methylene)cyclohexanecarboxamide Hydrochloride]"
3,534,"CCOC(=O)/N=C(\N)NCc1cnc(-c2ccc(Cl)cc2)c(-c2ccc(Cl)cc2)c1 [Compound of Example 81, 1-((5,6-bis(4-chlorophenyl)pyridin-3-yl)methyl)-2-(ethoxycarbonyl)guanidine Hydrochloride]"
4,2410,"N/C(=N\S(=O)(=O)c1ccccc1)NCc1cnc(-c2ccc(Cl)cc2)c(-c2ccccc2Cl)c1 [Compound of Example 16, N-(amino(((5-(2-chlorophenyl)-6-(4-chlorophenyl)pyridin-3-yl)methyl)amino)methylene)benzenesulfonamide]"
5,66,"Cc1ccc(-c2ncc(CN/C(N)=N/S(=O)(=O)c3ccccc3)cc2-c2ccc(Cl)cc2)cc1 [Compound of Example 5, N-(amino(((5-(4-chlorophenyl)-6-(4-methylphenyl)pyridin-3-yl)methyl)amino)methylene)benzenesulfonamide]"
6,297,"N/C(=N\S(=O)(=O)c1ccccc1)NCc1cnc(-c2ccc(OC(F)(F)F)cc2)c(-c2ccc(Cl)cc2)c1 [Compound of Example 10, N-(amino(((5-(4-chlorophenyl)-6-(4-(trifluoromethoxy)phenyl)pyridin-3-yl)methyl)amino)methylene)benzenesulfonamide]"
7,408,"N/C(=N\C(=O)c1nccs1)NCc1cnc(-c2ccc(Cl)cc2)c(-c2ccc(Cl)cc2)c1 [Compound of Example 61, N-(amino(((5,6-bis(4-chlorophenyl)pyridin-3-yl)methyl)amino)methylene)thiazole-2-carboxamide]"
8,539,"CC(N/C(N)=N/S(=O)(=O)c1ccccc1)c1cnc(-c2ccc(Cl)cc2)c(-c2ccc(Cl)cc2)c1 (stereo not drawn) [Compound of Example 46, N-(amino((1-(5,6-bis(4-chlorophenyl)pyridin-3-yl)ethyl)amino)methylene)benzenesulfonamide]"
9,368,"N/C(=N\S(=O)(=O)c1ccccc1)NCc1cc(-c2ccc(Cl)cc2)c(-c2ccc(Cl)cc2)nc1F [Compound of Example 89, N-(amino(((5,6-bis(4-chlorophenyl)-2-fluoropyridin-3-yl)methyl)amino)methylene)benzenesulfonamide]"
10,692,"N/C(=N\S(=O)(=O)c1ccccc1)NCc1cnc(-c2ccc(Cl)cc2)c(-c2ccccc2)c1 [Compound of Example 14, N-(amino(((6-(4-chlorophenyl)-5-phenylpyridin-3-yl)methyl)amino)methylene)benzenesulfonamide]"
11,115,"N/C(=N\S(=O)(=O)c1ccsc1)NCc1cnc(-c2ccc(Cl)cc2)c(-c2ccc(Cl)cc2)c1 [Compound of Example 30, N-(amino(((5,6-bis(4-chlorophenyl)pyridin-3-yl)methyl)amino)methylene)thiophene-3-sulfonamide]"
12,745,"N/C(=N\S(=O)(=O)c1ccccc1)NCc1cnc(-c2ccc(Cl)cc2)c(-c2ccc(OC(F)(F)F)cc2)c1 [Compound of Example 22, N-(amino(((6-(4-chlorophenyl)-5-(4-(trifluoromethoxy)phenyl)pyridin-3-yl)methyl)amino)methylene)benzenesulfonamide]"
13,183,"N/C(=N\S(=O)(=O)c1cc2ccccc2s1)NCc1cnc(-c2ccc(Cl)cc2)c(-c2ccc(Cl)cc2)c1 [Compound of Example 55, N-(amino(((5,6-bis(4-chlorophenyl)pyridin-3-yl)methyl)amino)methylene)benzo[b]thiophene-2-sulfonamide]"
14,743,"N/C(=N\S(=O)(=O)C1CC1)NCc1cnc(-c2ccc(Cl)cc2)c(-c2ccc(Cl)cc2)c1 [Compound of Example 58, N-(amino(((5,6-bis(4-chlorophenyl)pyridin-3-yl)methyl)amino)methylene)cyclopropanesulfonamide]"
15,72,"N/C(=N\S(=O)(=O)c1ccccc1)NCc1ncc(-c2ccc(Cl)cc2)c(-c2ccc(Cl)cc2)n1 [Compound of Example 87, N-(amino(((4,5-bis(4-chlorophenyl)pyrimidin-2-yl)methyl)amino)methylene)benzenesulfonamide]"
16,308,"N/C(=N\S(=O)(=O)c1ccccc1)NCc1cnc(-c2ccc(Cl)cc2)c(-c2cccc(Cl)c2)c1 [Compound of Example 15, N-(amino(((5-(3-chlorophenyl)-6-(4-chlorophenyl)pyridin-3-yl)methyl)amino)methylene)benzenesulfonamide]"
17,1880,"CN(C)C(=O)/N=C(\N)NCc1cnc(-c2ccc(Cl)cc2)c(-c2ccc(Cl)cc2)c1 [Compound of Example 79, 3-(amino(((5,6-bis(4-chlorophenyl)pyridin-3-yl)methyl)amino)methylene)-1,1-dimethylurea]"
18,314,"N/C(=N\C(=O)c1cccs1)NCc1cnc(-c2ccc(Cl)cc2)c(-c2ccc(Cl)cc2)c1 [Compound of Example 35, N-(amino(((5,6-bis(4-chlorophenyl)pyridin-3-yl)methyl)amino)methylene)thiophene-2-carboxamide Hydrochloride]"
19,1130,"N/C(=N\C(=O)c1ccc(F)cc1)NCc1cnc(-c2ccc(Cl)cc2)c(-c2ccc(Cl)cc2)c1 [Compound of Example 66, N-(amino(((5,6-bis(4-chlorophenyl)pyridin-3-yl)methyl)amino)methylene)-4-fluorobenzamide]"
20,185,"CCOc1cccc(S(=O)(=O)/N=C(\N)NCc2cnc(-c3ccc(Cl)cc3)c(-c3ccc(Cl)cc3)c2)c1 [Compound of Example 51, N-(amino(((5,6-bis(4-chlorophenyl)pyridin-3-yl)methyl)amino)methylene)-3-ethoxybenzenesulfonamide]"
21,1040,"N/C(=N\S(=O)(=O)c1ccccc1)NCc1cnc(-c2ccccc2)c(-c2ccc(C(F)(F)F)cc2)c1 [Compound of Example 92, N-(amino(((6-phenyl-5-(4-(trifluoromethyl)phenyl)pyridin-3-yl)methyl)amino)methylene)benzenesulfonamide]"
22,104,"COc1nc(-c2ccc(Cl)cc2)c(-c2ccc(Cl)cc2)cc1CN/C(N)=N/S(=O)(=O)c1ccccc1 [Compound of Example 88, N-(amino(((5,6-bis(4-chlorophenyl)-2-methoxypyridin-3-yl)methyl)amino)methylene)benzenesulfonamide]"
23,817,"N/C(=N\C(=O)c1ccc(C(F)(F)F)cc1)NCc1cnc(-c2ccc(Cl)cc2)c(-c2ccc(Cl)cc2)c1 [Compound of Example 77, N-(amino(((5,6-bis(4-chlorophenyl)pyridin-3-yl)methyl)amino)methylene)-4-trifluoromethylbenzamide]"
24,565,"N/C(=N\C(=O)C1CC1)NCc1cnc(-c2ccc(Cl)cc2)c(-c2ccc(Cl)cc2)c1 [Compound of Example 71, N-(amino(((5,6-bis(4-chlorophenyl)pyridin-3-yl)methyl)amino)methylene)cyclopropanecarboxamide]"
